Data from US12006294B2, “Therapeutic compounds” (REGENTS OF THE UNIVERSITY OF MINNESOTA, priority 2017, dated 2024).
Where two headings read alike, the source gives them in different places.

Key:
CAD5 cells = type: cell-based
Hela Cells = test: Cellular ER stress model (tunicamycin, WST-8 cell viability); settings: for AntiERStress (% Cell Survival): HeLa cells, tunicamycin 48 hours, WST-8; for viability at 2.5 µM: Homo sapiens, HeLa, 48 h
[1] = read-out: % Cell Survival Cmpd(2.5 μM) + Tuni, Hela cells, compound 2.5 μM + tunicamycin, WST-8 viability 48 hours after tunicamycin treatment
[2] = read-out: Compounds ERS (vs Tn), ERS activity vs Tuni = % cell survival (compound)/% cell survival (tunicamycin), compound 2.5 μM

SMILES	1/Elispot (CAD5 cells)	AntiPrion (Number of Cells × 10^4) (CAD5 cells)	EliSpot (Spots/10000 Cells) (CAD5 cells)	Elispot (vs PC) (CAD5 cells)	AntiERStress (% Cell Survival) (Hela Cells)	viability at 2.5 µM (Hela Cells; [1]) [%]	viability at 2.5 µM (Hela Cells; [2]) [%]
N=C(N)N/N=C/c1c(Cl)cccc1C(F)(F)F [BC2-45-1, (E)-2-(2-chloro-6-(trifluoromethyl)benzylidene)hydrazinecarboximidamide acetate]	0.62	10 × 10^4	2100	1.62	99.19	–	–
N=C(N)N/N=C/c1ccc(Cl)cc1 [BC2-13-1, (E)-2-(4-chlorobenzylidene)hydrazinecarboximidamide acetate]	0.72	9 × 10^4	1800	1.38	68.97	–	–
N=C(N)N/N=C/c1c(F)cccc1Cl [BC2-5-1, (E)-2-(2-chloro-6-fluorobenzylidene)hydrazinecarboximidamide acetate]	1.63	34 × 10^4	800	0.62	104.9813	–	–
N=C(N)N/N=C/c1c(Cl)ccc(Cl)c1Cl [BC1-282-1, (E)-2-(2,3,6-trichlorobenzylidene)hydrazinecarboximidamide acetate]	0.76	10 × 10^4	1700	1.31	101.2576	71.6	172
N=C(N)N/N=C/c1ccccc1F [BC2-11-1, (E)-2-(2-fluorobenzylidene)hydrazinecarboximidamide acetate]	1.63	38 × 10^4	800	0.62	52.43	–	–
C/C(=N\NC(=N)N)c1c(Cl)cccc1Cl [BC1-259-2, (E)-2-(1-(2,6-dichlorophenyl)ethylidene)hydrazinecarboximidamide]	1.63	26 × 10^4	800	0.62	62.87	–	–
N=C(N)N/N=C/c1cccc(Cl)c1Cl [BC2-7-1, (E)-2-(2,3-dichlorobenzylidene)hydrazinecarboximidamide acetate]	1.00	3 × 10^4	1300	1.00	100.0136	66.7	160
N=C(N)N/N=C/c1c(N)cccc1Cl [BC2-61-1, (E)-2-(2-amino-6-chlorobenzylidene)hydrazinecarboximidamide]	0.93	10 × 10^4	1400	1.08	86.56	–	–
N=C(N)N/N=C\c1c(Cl)cc(O)cc1Cl [BC1-171-1]	1.00	16 × 10^4	1300	1.00	52.54	–	–
N=C(N)N/N=C/c1ccccc1N [BC2-61-2, (E)-2-(2-aminobenzylidene)hydrazinecarboximidamide]	1.63	50 × 10^4	800	0.62	58.21	–	–
N=C(N)N/N=C/c1cccc(Cl)c1 [BC2-9-1, (E)-2-(3-chlorobenzylidene)hydrazinecarboximidamide acetate]	1.44	33 × 10^4	900	0.69	93.32	–	–
